Measurements: patent US20230374076A1, “THE PREPARATION OF CERAMIDE CONJUGATES AND DERIVATIVES OF SP[…]” (KODE BIOTECH LIMITED, priority 2017, published 2023)

Test system: red blood cells
Test: Incorporation of the ceramide conjugate into red blood cell membranes, fluorescence scored after labelling with Avidin Alexa Fluor 488
Format: cell-based
Method: A 50 μL volume of packed red blood cells was re-suspended in an equal volume of a dispersion in phosphate buffered saline (PBS) (pH 7.2) of the ceramide conjugate (X). The re-suspended cells were incubated at 37° C. for two hours and then washed once with PBS. The modified cells were diluted with PBS to provide a suspension at a concentration equivalent to 5% of the packed cell volume. A 30 μL volume of the diluted suspension was then mixed with an equal volume of a 0.1 mg/mL solution of Avidin Alexa Flour™ 488 in PBS. The mixture was incubated at room temperature for 30 minutes before washing and re-suspending the modified cells in PBS. The fluorescence of cells in a 5 μL volume was observed using a microscope (Olympus BX51) at 400 x magnification.
The modified cells prepared using dispersions of the ceramide conjugate (X) at different concentrations (0 (control), 0.5, 5 and 50 μM) were scored.

In the case of “ceramide-β-Ala-CMG(2)-biot [ceramide conjugate (X)]”, the “Incorporation into cell membranes (fluorescent labelling of the modified cells)” value was “spontaneously incorporated into cell membranes”.
